Here are results for five compounds from patent US7592365B2, “Substituted pyrroles, compositions containing same, method for making same and use thereof” (Aventis Pharma S.A., priority 2005, dated 2009).

The structures appear in SMILES notation.

The target in data set [1] is T1, human KDR enzyme (cytoplasmic domain, GST fusion) (Homo sapiens, UniProt P35968).
T1 construct: The cytoplasmic domain of the human KDR enzyme was cloned in a GST fusion form; GST; made in house; host or cells: SF21 insect cells (baculovirus)
Briefly: Phosphorylation of substrate by the KDR enzyme in vitro, scintillation technique. As to conditions: 2 μM cold ATP, PLCγ SH2-SH3 substrate, 1 hour at 37° C.; read-out: KDR IC 50. The data set is classed as biochemical. On the procedure: The inhibitory effect of the compounds is determined in a test of phosphorylation of substrate by the KDR enzyme in vitro by a scintillation technique (96-well plate, NEN).
The cytoplasmic domain of the human KDR enzyme was cloned in a GST fusion form into the baculovirus expression vector pFastBac. The protein was expressed in SF21 cells and purified to about 60% homogeneity.
The kinase activity of KDR is measured in 20 mM MOPS, 10 mM MgCl2, 10 mM MnCl2, 1 mM DTT, 2.5 mM EGTA, 10 mM b-glycerophosphate, pH=7.2, in the presence of 10 mM MgCl2, 100 μM Na3VO4, 1 mM NaF. 10 μl of the compound are added to 70 μl of kinase buffer containing 100 ng of KDR enzyme at 4° C. The reaction is initiated by adding 20 μl of solution containing 2 μg of substrate (SH2—SH3 fragment of PLCγ expressed in the form of a GST fusion protein), 2 μCi γ ^33P[ATP] and 2 μM cold ATP. After incubating for 1 hour at 37° C., the reaction is stopped by adding 1 volume (100 μl) of 200 mM EDTA. The incubation buffer is removed and the wells are washed three times with 300 μl of PBS. The radioactivity is measured in each well using a Top Count NXT (Packard) radioactivity counter.
The background noise is determined by measuring the radioactivity in four different wells containing radioactive ATP and the substrate alone.
A control for total activity is measured in four different wells all containing the reagents (γ^33P-[ATP], KDR and PLCγ substrate) but in the absence of compound.
The inhibition of the KDR activity with the compound of the invention is expressed as percentage inhibition of the control activity determined in the absence of compound.
The compound SU5614 (Calbiochem) (1 μM) is included in each plate as control for inhibition.

The target in data set [2] is T2, human FAK (Homo sapiens, UniProt Q05397).
T2 construct: The complete human FAK cDNA, whose N-terminal end was labelled with histidine, was cloned into a baculovirus expression vector pFastBac HTc; made in house
Briefly: FAK autophosphorylation inhibition, time-resolved fluorescence test (HTRF). The data set is classed as biochemical. The note with it: 15 μM ATP, 1 hour at 37° C.; read-out: FAK IC 50. Here is the method:
The inhibitory activity of the compounds on FAK is determined by a measurement of the inhibition of the autophosphorylation of the enzyme using a time-resolved fluorescence test (HTRF).
The complete human FAK cDNA, whose N-terminal end was labelled with histidine, was cloned into a baculovirus expression vector pFastBac HTc. The protein was expressed and purified at about 70% homogeneity.
The kinase activity is determined by incubating the enzyme (6.6 μg/ml) with various concentrations of test compound in a 50 mM Hepes buffer, pH=7.2, containing 10 mM MgCl2, 100 μM Na3VO4, 15 μM ATP for 1 hour at 37° C. The enzymatic reaction is stopped by adding Hepes buffer, pH=7.0, containing 0.4 mM KF, 133 mM EDTA, 0.1% BSA and the labelling is carried out, for 1 to 2 hours at room temperature, by adding to this buffer an anti-histidine antibody labelled with XL665 and a monoclonal antibody phospho-specific for tyrosine, conjugated with europium cryptate (Eu-K). The characteristics of the two fluorophores are available in G. Mathis et al., Anticancer Research, 1997, 17, pages 3011-3014. The energy transfer between the excited europium cryptate to the acceptor XL665 is proportional to the degree of autophosphorylation of FAK. The signal of long duration specific for XL-665 is measured in a Packard Discovery plate counter. All the assays are performed in duplicate and the mean of the two assays is calculated. The inhibition of the FAK autophosphorylation activity with compounds of the invention is expressed as a percentage inhibition relative to a control whose activity is measured in the absence of test compound. For the calculation of the % inhibition, the [signal at 665 nm/signal at 620 nm] ratio is considered.

Data set [3] has as its target T3, human Tie2 (intracellular domain 776-1124, GST fusion) (Homo sapiens, UniProt Q02763).
T3 construct: the amino acids of the intracellular domain 776-1124; made in house
Nature of the data set: Phosphorylation of PLC by Tie2 (GST-Tie2), FlashPlate radioactivity test. The data set is classed as biochemical. The note with it: 2 μM cold ATP, GST-PLC substrate, 1 hour at 37° C.; read-out: TEI2 IC 50. Here is the method: The coding sequence for human Tie2 corresponding to the amino acids of the intracellular domain 776-1124 was generated by PCR using the cDNA isolated from human placenta as model. This sequence was introduced into a baculovirus expression vector pFastBacGT in the form of a GST fusion protein.
The inhibitory effect of the molecules is determined in a test of phosphorylation of PLC by Tie2 in the presence of GST-Tie2 purified to about 80% homogeneity. The substrate is composed of the SH2—SH3 fragments of PLC expressed in the form of the GST fusion protein.
The kinase activity of Tie2 is measured in a 20 mM MOPS buffer, pH 7.2, containing 10 mM MgCl2, 10 mM MnCl2, 1 mM DTT, 10 mM glycero-phosphate. A reaction mixture composed of 70 μl of kinase buffer containing 100 ng of GST-Tie2 enzyme per well is deposited in a FlashPlate 96-well plate kept on ice. 10 μl of the test molecule diluted in DMSO to a concentration of 10% maximum are then added. For a given concentration, each measurement is carried out in quadruplicate. The reaction is initiated by adding 20 μl of solution containing 2 μg of GST-PLC, 2 μM of cold ATP and 1 μCi of d′^33P[ATP]. After incubating for 1 hour at 37° C., the reaction is stopped by adding 1 volume (100 μl) of EDTA at 200 mM. After removing the incubation buffer, the wells are washed three times with 300 μl of PBS. The radioactivity is measured on a Wallac MicroBeta1450.
The inhibition of the Tie2 activity is calculated and expressed as a percentage inhibition relative to the control activity determined in the absence of compound.

T2 sequence (Q05397 whole entry): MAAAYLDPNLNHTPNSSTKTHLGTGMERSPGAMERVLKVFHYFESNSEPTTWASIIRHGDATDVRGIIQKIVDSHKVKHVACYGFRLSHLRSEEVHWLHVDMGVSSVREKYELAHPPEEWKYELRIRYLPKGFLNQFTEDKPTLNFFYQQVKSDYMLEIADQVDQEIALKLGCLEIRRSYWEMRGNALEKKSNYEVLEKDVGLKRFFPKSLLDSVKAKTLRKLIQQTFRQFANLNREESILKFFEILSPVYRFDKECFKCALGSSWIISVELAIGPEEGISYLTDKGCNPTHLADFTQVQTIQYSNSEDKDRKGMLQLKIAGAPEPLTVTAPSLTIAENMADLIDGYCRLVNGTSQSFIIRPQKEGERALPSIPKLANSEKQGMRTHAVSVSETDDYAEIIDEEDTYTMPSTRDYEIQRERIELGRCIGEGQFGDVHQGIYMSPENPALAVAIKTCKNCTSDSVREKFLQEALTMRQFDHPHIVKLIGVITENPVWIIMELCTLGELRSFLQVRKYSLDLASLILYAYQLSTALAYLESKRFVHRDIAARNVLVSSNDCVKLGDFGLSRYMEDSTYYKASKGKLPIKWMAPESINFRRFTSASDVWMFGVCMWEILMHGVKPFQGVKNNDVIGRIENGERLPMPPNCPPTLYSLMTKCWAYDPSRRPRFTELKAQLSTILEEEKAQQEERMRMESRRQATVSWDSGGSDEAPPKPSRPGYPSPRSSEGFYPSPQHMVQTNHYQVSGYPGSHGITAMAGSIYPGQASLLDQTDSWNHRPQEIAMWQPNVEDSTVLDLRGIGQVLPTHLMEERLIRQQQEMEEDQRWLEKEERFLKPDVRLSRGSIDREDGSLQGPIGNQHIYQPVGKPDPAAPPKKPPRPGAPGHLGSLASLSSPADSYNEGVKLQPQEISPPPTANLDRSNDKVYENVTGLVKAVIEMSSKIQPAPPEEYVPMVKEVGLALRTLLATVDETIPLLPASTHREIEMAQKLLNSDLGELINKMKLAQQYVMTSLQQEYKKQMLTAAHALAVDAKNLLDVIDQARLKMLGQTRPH
T3 sequence (Q02763 776-1124): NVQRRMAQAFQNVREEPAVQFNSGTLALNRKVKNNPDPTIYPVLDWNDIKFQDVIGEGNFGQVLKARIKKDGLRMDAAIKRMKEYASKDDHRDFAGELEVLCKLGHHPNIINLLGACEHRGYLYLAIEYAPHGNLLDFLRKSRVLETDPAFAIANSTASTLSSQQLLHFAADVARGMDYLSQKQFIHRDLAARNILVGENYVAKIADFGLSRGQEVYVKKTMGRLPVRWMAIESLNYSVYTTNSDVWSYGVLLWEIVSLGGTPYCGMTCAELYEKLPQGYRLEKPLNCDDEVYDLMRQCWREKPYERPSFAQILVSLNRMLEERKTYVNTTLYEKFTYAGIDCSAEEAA
T1 sequence (P35968 786-1356 limits assumed): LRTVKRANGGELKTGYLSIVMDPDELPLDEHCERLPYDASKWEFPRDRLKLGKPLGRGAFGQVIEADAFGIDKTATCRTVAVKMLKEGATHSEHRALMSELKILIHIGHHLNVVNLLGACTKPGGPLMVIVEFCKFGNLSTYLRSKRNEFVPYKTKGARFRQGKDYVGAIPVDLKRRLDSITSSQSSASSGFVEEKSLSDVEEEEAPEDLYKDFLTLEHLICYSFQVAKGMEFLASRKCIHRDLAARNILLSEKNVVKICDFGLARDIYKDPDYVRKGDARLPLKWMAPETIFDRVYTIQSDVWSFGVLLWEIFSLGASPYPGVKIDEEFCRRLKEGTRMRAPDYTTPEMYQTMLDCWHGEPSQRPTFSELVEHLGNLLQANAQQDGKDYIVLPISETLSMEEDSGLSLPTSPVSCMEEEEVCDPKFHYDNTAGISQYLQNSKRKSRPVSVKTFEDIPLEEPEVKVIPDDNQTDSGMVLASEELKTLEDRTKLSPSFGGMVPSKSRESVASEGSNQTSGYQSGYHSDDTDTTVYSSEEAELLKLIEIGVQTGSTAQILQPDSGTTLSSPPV

Regarding `NC(=O)c1c[nH]cc1-c1ccc(NC(=O)Nc2cc(C(F)(F)F)ccc2F)cc1` [Example 1, 4-{4-[3-(2-Fluoro-5-trifluoromethylphenyl)ureido]phenyl}-1H-pyrrole-3-carboxamide], the IC50 is 6.47 µM in data set [1], 2.06 µM in data set [2] and 0.069 µM in data set [3].

Regarding `CCCC(=O)Nc1[nH]cc(-c2ccc(NC(=O)Nc3cc(C(F)(F)F)ccc3F)cc2)c1C(N)=O` [Example 5, 2-Butyrylamino-4-{4-[3-(2-fluoro-5-trifluoromethylphenyl)ureido]phenyl}-1H-pyrrole-3-carboxamide], the IC50 in data set [1] came to 0.042 µM; in data set [2], 0.266 µM; in data set [3], 0.011 µM.

Regarding `CC(=O)Nc1[nH]cc(-c2ccc(NC(=O)Nc3ccc(C)c(C)c3)cc2)c1C(N)=O` [Example 19, 2-Acetylamino-4-{4-[3-(3,4-dimethylphenyl)ureido]phenyl}-1H-pyrrole-3-carboxamide], the IC50 in data set [1] amounted to 0.013 µM; in data set [2], 0.717 µM; in data set [3], 0.125 µM.

In the case of `CC(=O)Nc1[nH]cc(-c2ccc(NC(=O)Nc3ccc(OC(F)(F)F)cc3)cc2)c1C(N)=O` [Example 21, 2-Acetylamino-4-{4-[3-(4-trifluoromethoxyphenyl)ureido]phenyl}-1H-pyrrole-3-carboxamide], the IC50 in data set [1] turned out to be 0.019 µM; in data set [2], 0.163 µM; in data set [3], 0.118 µM.

`CC(=O)Nc1[nH]cc(-c2ccc(NC(=O)Nc3ccc(C)c(C(F)(F)F)c3)cc2)c1C(N)=O` [Example 40, 2-Acetylamino-4-{4-[3-(4-methyl-3-trifluoromethylphenyl)ureido]phenyl}-1H-pyrrole-3-carboxamide] gave a melting point of 266 °C.
